Measurements: patent publication US10080751B2, “Systems and methods for treating bacterial infection” (priority 2016, dated 2018)
Converted amounts (≈) assume the structure as drawn. Like-named read-outs stand apart in the source and are kept apart here.

Assays:
[1] = tested on: E. coli; test: MIC with/without bovine pulmonary surfactant, E. coli; type: cell-based, Escherichia coli; settings: E. coli ATCC 25922
Procedure: (§1) Clinical isolates were identified by the submitting laboratories and confirmed by JMI Laboratories using standard bacteriologic algorithms and methodologies, including Matrix-Assisted Laser Desorption Ionization-Time Of Flight Mass Spectrometry (MALDI-TOF MS). When necessary, MALDI-TOF MS was performed using the Bruker Daltonics MALDI Biotyper (Billerica, Mass., USA), following manufacturer's instructions. Isolates selected were bacterial species commonly associated with pneumonia. […] 2.2 Susceptibility testing
(§2) Antibacterial susceptibility testing was measured by JMI Labs (North Liberty, Iowa, USA). […] These clinical isolates were collected from US (n=4), Mexico (n=2), and Italy (n=1). Susceptibility testing was performed by broth microdilution in accordance with the Clinical and Laboratory and Standards Institute (CLSI) guidelines M07-A10 (2015) and the standard operating procedures at JMI laboratories. Minimum inhibitory concentrations (MICs) were based on CLSI criteria (2015). There are no published breakpoints for iclaprim. E. coli, K. pneumoniae, M. catarrhalis, E. faecalis, and S. aureus were tested in cation-adjusted Mueller-Hinton broth (CA-MHB). S. pneumoniae were tested in CA-MHB supplemented with 2.5-5% lysed horse blood, and H. influenza were tested in Haemophilus test medium. Quality control and interpretation of results were performed in accordance with CLSI M100-S26 (2016) methods. QC ranges for iclaprim were those approved by CLSI and published in M100-S26 (2016). Iclaprim and comparator antibiotic MIC results were within the CLSI published ranges against E. coli ATCC 25922, E. faecalis ATCC 29212, E. faecalis ATCC 33186, H. influenzae ATCC 49247, K. pneumoniae ATCC 700603 (ESBL phenotype), S. aureus ATCC 29213, and S. pneumoniae ATCC 49619. Isolates were tested with MIC panels (ThermoFisher Scientific, Cleveland, Ohio, USA) of comparator antibiotics (daptomycin and levofloxacin).
(§3) Because bovine pulmonary surfactant can introduce cloudiness to the MIC testing media, antimicrobial growth inhibition was also evaluated using the colorimetric metabolic indicator resazurin (Camlab Ltd., Cambridge, UK). […] S. pneumoniae panels were omitted from resazurin analysis because the color change was obscured by the lysed horse blood present in the test medium. Growth inhibition was then evaluated as a visible color change from blue (no growth) to pink (robust growth) and recorded as a MICRZ value.
(§4) The MICs of iclaprim, levofloxacin, and daptomycin were determined against Gram-positive and Gram-negative isolates.
A new vial of bovine pulmonary surfactant (BPS; Survanta®; Abbott Laboratories, Columbus, Ohio) was utilized for each independent experiment. […] MICs of daptomycin were determined in CAMHB with the Ca^2+ content adjusted to 50 mg/L.

[2] = tested on: E. faecalis; test: MIC with/without bovine pulmonary surfactant, E. faecalis; type: cell-based, Enterococcus faecalis; settings: for MIC: Enterococcus faecalis
Procedure: as §1, §2, §3, §4
(§5) A new vial of bovine pulmonary surfactant (BPS; Survanta®; Abbott Laboratories, Columbus, Ohio) was utilized for each independent experiment. Each vial was mixed thoroughly and a 100 μL aliquot was spread on an agar plate, which was incubated overnight to confirm sterility. […] The concentration of surfactant was expressed in terms of percent volume of Survanta® suspension, which consisted of phospholipid (25 mg/mL) and surfactant proteins (<1 mg/mL) in 0.9% sodium chloride solution (Goerke, 1998). MICs of daptomycin were determined in CAMHB with the Ca^2+ content adjusted to 50 mg/L.

[3] = tested on: H. influenzae; test: MIC with/without bovine pulmonary surfactant, H. influenzae; type: cell-based, Haemophilus influenzae; settings: for MIC: Haemophilus influenzae
Procedure: as §1, §2, §3, §4, §5

[4] = tested on: K. pneumoniae; test: MIC with/without bovine pulmonary surfactant, K. pneumoniae; type: cell-based, Klebsiella pneumoniae; settings: for MIC: Klebsiella pneumoniae
Procedure: as §1, §2, §3, §4, §5

[5] = tested on: M. catarrhalis; test: MIC with/without bovine pulmonary surfactant, M. catarrhalis; type: cell-based, Moraxella catarrhalis; settings: for MICRZ, Resazurin: +BPS: 2.5% v/v BPS
Procedure: as §1, §2, §3, §4, §5

[6] = tested on: S. aureus; test: MIC with/without bovine pulmonary surfactant, S. aureus; type: cell-based, Staphylococcus aureus; settings: for MICRZ, Resazurin: +BPS: 2.5% v/v BPS; for MICRZ, Resazurin: no BPS
Procedure: as §1, §2, §3, §4, §5

[7] = tested on: S. pneumoniae; test: MIC with/without bovine pulmonary surfactant, S. pneumoniae; type: cell-based; settings: Streptococcus pneumoniae
Procedure: as §1, §2, §3, §4, §5

[8] = tested on: S. aureus strain AH1252; test: Neutropenic rat lung infection model; type: in vivo; settings: iclaprim 80 mg/kg
Procedure: S. aureus strain AH1252, a thymidine knockout of the MRSA wild type AW6 strain, was utilized for this study. The bacterial strain was diluted in a 2% alginate buffer, which was added dropwise in a ratio of 1:5 into […] to form alginate beads. The alginate beads reduce the efficacy of bacterial clearance similar to that seen in the cystic fibrosis population. A 5.25×10^4 bacterial inoculum was administered to groups of 9 rats, intratracheally, with prepared alginate bacteria suspensions, under isoflurane anesthesia. […] Twelve hours after the last treatment, rats were euthanized and lungs collected for CFU determination.

[9] = tested on: nosocomial pneumonia suspected or confirmed to be caused by Gram-positive pathogens; settings: intent-to-treat, test of cure visit; vancomycin 1 g IV q12h; cited from earlier work
[10] = S. aureus Clinical Isolate 825189
[11] = SC/BID 3 days, vancomycin 50 mg/kg

Q: With `C[C@H]1COc2c(N3CCN(C)CC3)c(F)cc3c(=O)c(C(=O)O)cn1c23` [Levofloxacin] as the compound, how does the “MICRZ, Resazurin: +BPS” value ([1]; 2.5% v/v BPS) read?
A: The value was 0.03 µg/mL.

Q: What about the “MICRZ, Resazurin” value ([1]; no BPS) of the same compound?
A: Its value is 0.015 µg/mL.

Q: What about the “MICRZ, Resazurin: +BPS” value ([2]; E. faecalis ATCC 29212, 2.5% v/v BPS) of the same compound?
A: Its value is 1 µg/mL.

Q: What about the “MICRZ, Resazurin” value ([2]; E. faecalis ATCC 29212, no BPS) of the same compound?
A: The value was 1 µg/mL.

Q: And the “MICRZ, Resazurin: +BPS” value ([2]; E. faecalis ATCC 33186, 2.5% v/v BPS)?
A: The value was 2 µg/mL.

Q: What about the “MICRZ, Resazurin” value ([2]; E. faecalis ATCC 33186, no BPS) of the same compound?
A: The value was 4 µg/mL.

Q: And the MIC ([2]; ATCC29212, E. faecalis ATCC 29212, 2.5% v/v BPS, read-out: MIC, CLSI: +BPS)?
A: Its MIC is 1 µg/mL (≈ 2.77 µM).

Q: And the MIC ([2]; ATCC29212, E. faecalis ATCC 29212, no BPS, read-out: MIC, CLSI)?
A: The MIC was 1 µg/mL (≈ 2.77 µM).

Q: What about the MIC ([2]; ATCC33186, E. faecalis ATCC 33186, 2.5% v/v BPS, read-out: MIC, CLSI: +BPS) of the same compound?
A: The MIC was 1 µg/mL (≈ 2.77 µM).

Q: And the MIC ([2]; ATCC33186, E. faecalis ATCC 33186, no BPS, read-out: MIC, CLSI)?
A: The MIC was 4 µg/mL (≈ 11.1 µM).

Q: And the “MICRZ, Resazurin: +BPS” value ([3]; H. influenzae ATCC 49247, 2.5% v/v BPS)?
A: The value was 0.03 µg/mL.

Q: And the “MICRZ, Resazurin” value ([3]; H. influenzae ATCC 49247, no BPS)?
A: Its value is 0.03 µg/mL.

Q: What about the “MICRZ, Resazurin: +BPS” value ([3]; H. influenzae Clinical Isolate 824704, 2.5% v/v BPS) of the same compound?
A: Its value is 0.015 µg/mL.

Q: And the “MICRZ, Resazurin” value ([3]; H. influenzae Clinical Isolate 824704, no BPS)?
A: The value was 0.015 µg/mL.

Q: And the MIC ([3]; ATCC49247, H. influenzae ATCC 49247, 2.5% v/v BPS, read-out: MIC, CLSI: +BPS)?
A: The MIC was 0.03 µg/mL (≈ 0.083 µM).

Q: And the MIC ([3]; ATCC49247, H. influenzae ATCC 49247, no BPS, read-out: MIC, CLSI)?
A: The MIC was 0.03 µg/mL (≈ 0.083 µM).

Q: And the MIC ([3]; H. influenzae Clinical Isolate 824704, 2.5% v/v BPS, read-out: MIC, CLSI: +BPS)?
A: Its MIC is 0.015 µg/mL (≈ 0.0415 µM).

Q: What about the MIC ([3]; H. influenzae Clinical Isolate 824704, no BPS, read-out: MIC, CLSI) of the same compound?
A: The MIC was 0.015 µg/mL (≈ 0.0415 µM).

Q: What about the “MICRZ, Resazurin: +BPS” value ([4]; K. pneumoniae ATCC 700603, 2.5% v/v BPS) of the same compound?
A: The value was 1 µg/mL.

Q: What about the “MICRZ, Resazurin” value ([4]; K. pneumoniae ATCC 700603, no BPS) of the same compound?
A: The value was 1 µg/mL.

Q: What about the “MICRZ, Resazurin: +BPS” value ([4]; K. pneumoniae Clinical Isolate 858055, 2.5% v/v BPS) of the same compound?
A: Its value is 0.06 µg/mL.

Q: And the “MICRZ, Resazurin” value ([4]; K. pneumoniae Clinical Isolate 858055, no BPS)?
A: The value was 0.06 µg/mL.

Q: What about the MIC ([4]; ATCC700603, K. pneumoniae ATCC 700603, 2.5% v/v BPS, read-out: MIC, CLSI: +BPS) of the same compound?
A: Its MIC is 1 µg/mL (≈ 2.77 µM).

Q: What about the MIC ([4]; ATCC700603, K. pneumoniae ATCC 700603, no BPS, read-out: MIC, CLSI) of the same compound?
A: The MIC was 1 µg/mL (≈ 2.77 µM).

Q: What about the MIC ([4]; K. pneumoniae Clinical Isolate 858055, 2.5% v/v BPS, read-out: MIC, CLSI: +BPS) of the same compound?
A: The MIC was 0.12 µg/mL (≈ 0.332 µM).

Q: And the MIC ([4]; K. pneumoniae Clinical Isolate 858055, no BPS, read-out: MIC, CLSI)?
A: Its MIC is 0.06 µg/mL (≈ 0.166 µM).

Q: And the “MICRZ, Resazurin: +BPS” value ([5]; M. catarrhalis Clinical Isolate 893806)?
A: The value was 0.06 µg/mL.

Q: And the “MICRZ, Resazurin” value ([5]; M. catarrhalis Clinical Isolate 893806, no BPS)?
A: The value was 0.06 µg/mL.

Q: What about the “MICRZ, Resazurin: +BPS” value ([5]; M. catarrhalis Clinical Isolate 893807) of the same compound?
A: The value was 0.06 µg/mL.

Q: What about the “MICRZ, Resazurin” value ([5]; M. catarrhalis Clinical Isolate 893807, no BPS) of the same compound?
A: Its value is 0.06 µg/mL.

Q: And the MIC ([5]; Moraxella catarrhalis, M. catarrhalis Clinical Isolate 893806, no BPS)?
A: The MIC was 0.06 µg/mL (≈ 0.166 µM).

Q: And the “MICRZ, Resazurin: +BPS” value ([6]; S. aureus ATCC 29213)?
A: Its value is 0.12 µg/mL.

Q: What about the “MICRZ, Resazurin” value ([6]; S. aureus ATCC 29213) of the same compound?
A: Its value is 0.25 µg/mL.

Q: And the “MICRZ, Resazurin: +BPS” value [6, 10]?
A: Its value is 0.25 µg/mL.

Q: And the “MICRZ, Resazurin” value [6, 10]?
A: Its value is 0.25 µg/mL.

Q: And the MIC ([7]; ATCC49619, S. pneumoniae ATCC 49619, 2.5% v/v BPS, read-out: MIC, CLSI: +BPS)?
A: The MIC was 1 µg/mL (≈ 2.77 µM).

Q: What about the MIC ([7]; ATCC49619, S. pneumoniae ATCC 49619, no BPS, read-out: MIC, CLSI) of the same compound?
A: Its MIC is 1 µg/mL (≈ 2.77 µM).

Q: What about the MIC ([7]; S. pneumoniae Clinical Isolate 818757, 2.5% v/v BPS, read-out: MIC, CLSI: +BPS) of the same compound?
A: The MIC was 1 µg/mL (≈ 2.77 µM).

Q: What about the MIC ([7]; S. pneumoniae Clinical Isolate 818757, no BPS, read-out: MIC, CLSI) of the same compound?
A: Its MIC is 1 µg/mL (≈ 2.77 µM).

Q: And the MIC ([7]; S. pneumoniae Clinical Isolate 825175, 2.5% v/v BPS, read-out: MIC, CLSI: +BPS)?
A: Its MIC is 1 µg/mL (≈ 2.77 µM).

Q: What about the MIC ([7]; S. pneumoniae Clinical Isolate 825175, no BPS, read-out: MIC, CLSI) of the same compound?
A: Its MIC is 1 µg/mL (≈ 2.77 µM).

Q: With `CN[C@H](CC(C)C)C(=O)N[C@H]1C(=O)N[C@@H](CC(N)=O)C(=O)N[C@H]2C(=O)N[C@H]3C(=O)N[C@H](C(=O)N[C@H](C(=O)O)c4cc(O)cc(O)c4-c4cc3ccc4O)[C@H](O)c3ccc(c(Cl)c3)Oc3cc2cc(c3O[C@@H]2O[C@H](CO)[C@@H](O)[C@H](O)[C@H]2O[C@H]2C[C@](C)(N)[C@H](O)[C@H](C)O2)Oc2ccc(cc2Cl)[C@H]1O` [Vancomycin] as the compound, how does the “72 hour lungs (CFU/gram of lung) log10CFU/Lung” value [8, 11] read?
A: The value was 5.30 log10CFU/Lung.

Q: What about the “Change in CFUs from 2 hr.” value [8, 11] of the same compound?
A: The value was 2.18 log 10 CFU.

Q: What about the “Survival >60 hrs” value ([8]; SC/BID 3 days, vancomycin 50 mg/kg, 9 rats) of the same compound?
A: Its value is 8/9.

Q: And the “survival compared to the infection controls” value ([8]; vancomycin 50 mg/kg SC/BID)?
A: The value was “increased survival”.

Q: What about the “Change in CFUs from 72 hr.” value ([8]; vs 72 hr infection controls, vancomycin 50 mg/kg SC/BID) of the same compound?
A: Its value is −3.38 log 10 CFU.

Q: And the cure rate [9]?
A: Its cure rate is 52.2%.
